This assay deals with T1, glucosylceramide synthase (Homo sapiens, UniProt Q16739).
T1 construct: made in house; host or cells: Expi293F cells (transient expression, pcDNA3.3-TOPO vector); microsome fraction used as enzyme source
T1 sequence (Q16739 1-394): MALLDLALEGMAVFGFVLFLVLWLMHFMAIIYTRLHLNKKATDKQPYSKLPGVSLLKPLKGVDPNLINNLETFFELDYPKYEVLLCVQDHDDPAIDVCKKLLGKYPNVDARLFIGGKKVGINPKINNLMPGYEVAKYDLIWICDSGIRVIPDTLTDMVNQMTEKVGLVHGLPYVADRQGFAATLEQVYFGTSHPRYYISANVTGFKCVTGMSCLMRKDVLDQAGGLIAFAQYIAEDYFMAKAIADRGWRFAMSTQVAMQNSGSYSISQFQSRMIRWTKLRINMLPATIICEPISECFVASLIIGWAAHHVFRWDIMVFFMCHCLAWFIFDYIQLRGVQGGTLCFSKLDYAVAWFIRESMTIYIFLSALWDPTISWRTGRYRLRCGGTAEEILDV
Put plainly: Glucosylceramide synthase (GCS) enzyme assay, microsome fraction, C8 glucosylceramide quantified by Rapidfire MS/MS. In kind it is biochemical. The settings on record: test compound 10 μM, 1.7 μM UDP-glucose, 3 μM C8 ceramide, room temperature 60 min; for inhibition at 10 µM: read-out: GCS enzyme inhibitory rate at 10 μM (%) (% of control). The essentials: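 Test compound, 10 μM final, was run against human GCS from transfected Expi293F microsome fractions, using substrate solution of 6 μM C8 ceramide (in DOPC liposomes) plus 3.4 μM UDP-glucose, pH 7.5 Tris buffer, 60 min, room temperature. Product C8 glucosylceramide measured by Rapidfire MS/MS against an internal standard, % inhibition referenced to no-enzyme and DMSO wells.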

In the case of `CC(C)(O)c1ccc(N2Cc3c(cc(C(F)F)nc3-c3ccccc3OCC(F)(F)F)C2=O)cn1` [Example 328, 6-(difluoromethyl)-2-[6-(2-hydroxypropan-2-yl)pyridin-3-yl]-4-[2-(2,2,2-trifluoroethoxy)phenyl]-2,3-dihydro-1H-pyrrolo[3,4-c]pyridin-1-one], the inhibition at 10 µM stood at 100%. For `CC(=O)N1CC(O)(c2ccc(N3Cc4c(ccnc4-c4ccccc4OCC(F)(F)F)C3=O)cc2)C1` [Example 258, 2-[4-(1-acetyl-3-hydroxyazetidin-3-yl)phenyl]-4-[2-(2,2,2-trifluoroethoxy)phenyl]-2,3-dihydro-1H-pyrrolo[3,4-c]pyridin-1-one], the inhibition at 10 µM was determined as 70%. Regarding `O=C1c2ccnc(-c3ccc(F)cc3OCC(F)(F)F)c2CN1c1ccc(C2(O)CC2)cc1` [Example 225, 4-[4-fluoro-2-(2,2,2-trifluoroethoxy)phenyl]-2-[4-(l-hydroxycyclopropyl)phenyl]-2,3-dihydro-1H-pyrrolo[3,4-c]pyridin-1-one], the inhibition at 10 µM came out at 94%. For the compound `O=C1c2ccnc(-c3ccccc3OCC(F)(F)F)c2CN1c1cnn(CC2(F)COC2)c1` [Example 247, 2-{1-[(3-fluorooxetan-3-yl)methyl]-1H-pyrazol-4-yl}-4-[2-(2,2,2-trifluoroethoxy)phenyl]-2,3-dihydro-1H-pyrrolo[3,4-c]pyridin-1-one], the inhibition at 10 µM came out at 97%. On the same count and under the same terms, then `COc1ccccc1-c1nccc2c1CN(c1ccc(OC(F)F)cc1)C2=O` [Example 25, 2-[4-(difluoromethoxy)phenyl]-4-(2-methoxyphenyl)-2,3-dihydro-1H-pyrrolo[3,4-c]pyridin-1-one], with 99%. For `CC(=O)c1ccc(N2Cc3c(ccnc3-c3c(F)cccc3OCC(F)(F)F)C2=O)cc1` [Example 319, 2-(4-acetylphenyl)-4-[2-fluoro-6-(2,2,2-trifluoroethoxy)phenyl]-2,3-dihydro-1H-pyrrolo[3,4-c]pyridin-1-one], the inhibition at 10 µM worked out at 97%. `CC(O)c1ccc(N2Cc3c(ccnc3-c3ccccc3OCC(F)(F)F)C2=O)cc1` (racemic) [Example 280, rac-2-[4-(1-hydroxyethyl)phenyl]-4-[2-(2,2,2-trifluoroethoxy)phenyl]-2,3-dihydro-1H-pyrrolo [3,4-c]pyridin-1-one]: the inhibition at 10 µM stood at 99%. On the same count and under the same terms, then `N#CC1(c2ccc(N3Cc4c(ccnc4-c4ccc(F)cc4OCC(F)(F)F)C3=O)cc2)CCOCC1` [Example 218, 4-(4-{4-[4-fluoro-2-(2,2,2-trifluoroethoxy)phenyl]-1-oxo-1,3-dihydro-2H-pyrrolo[3,4-c]pyridin-2-yl}phenyl)oxan-4-carbonitrile], with 99%. Same read-out and setting: under `CC(C)(O)c1ccc(N2Cc3c(ccnc3-c3ccc(F)cc3OCC(F)F)C2=O)cc1` [Example 241, 4-[2-(2,2-difluoroethoxy)-4-fluorophenyl]-2-[4-(2-hydroxypropan-2-yl)phenyl]-2,3-dihydro-1H-pyrrolo[3,4-c]pyridin-1-one] stands 98%; under `O=C1c2ccnc(-c3ccc(F)cc3OCC(F)(F)F)c2CN1c1cnn(CC(F)F)c1` [Example 93, 2-[1-(2,2-difluoroethyl)-1H-pyrazol-4-yl]-4-[4-fluoro-2-(2,2,2-trifluoroethoxy)phenyl]-2,3-dihydro-1H-pyrrolo[3,4-c]pyridin-1-one], 95%. As to `O=C1c2ccnc(-c3ccccc3OCC(F)(F)F)c2CN1c1ccc(C(O)C2CC2)nc1` (racemic) [Example 317, rac-2-{6-[cyclopropyl(hydroxy)methyl]pyridin-3-yl}-4-[2-(2,2,2-trifluoroethoxy)phenyl]-2,3-dihydro-1H-pyrrolo[3,4-c]pyridin-1-one], the inhibition at 10 µM worked out at 99%. On the same count and under the same terms, under `Fc1ccc(N2Cc3ccnc(-c4ccc(F)cc4OCC(F)(F)F)c3C2)nc1` [Example 169, 2-(5-fluoropyridin-2-yl)-4-[4-fluoro-2-(2,2,2-trifIuoroethoxy)phenyl]-2,3-dihydro-1H-pyrrolo[3,4-c]pyridine] stands 95%; under `O=C1c2ccnc(-c3ccc(F)cc3OCC(F)(F)F)c2CN1c1ccc(F)cc1` [Example 13, 2-(4-fluorophenyl)-4-[4-fluoro-2-(2,2,2-trifluoroethoxy)phenyl]-2,3-dihydro-1H-pyrrolo[3,4-c]pyridin-1-one], 63%. Turning to `Cn1nc(N2Cc3c(ccnc3-c3ccc(F)cc3OCC(F)(F)F)C2=O)cc1OC(F)F` [Example 309, 2-[5-(difluoromethoxy)-1-methyl-1H-pyrazol-3-yl]-4-[4-fluoro-2-(2,2,2-trifluoroethoxy)phenyl]-2,3-dihydro-1H-pyrrolo[3,4-c]pyridin-1-one], the inhibition at 10 µM was 60%. On to `O=C1c2ccnc(-c3ccccc3OCC(F)(F)F)c2CN1c1ccc(C(O)C(F)(F)F)nc1` (single isomer, unassigned) [Example 277, (R or S)-4-[2-(2,2,2-trifluoroethoxy)phenyl]-2-[6-(2,2,2-trifluoro-1-hydroxyethyl)pyridin-3-yl]-2,3-dihydro-1H-pyrrolo[3,4-c]pyridin-1-one], for which the “GCS enzyme inhibitory rate at 10 μM (%) (% of control)” value was 98%. Take `O=C1c2ccnc(-c3ccc(F)cc3OCC(F)(F)F)c2CN1c1ccc(OC2CCOCC2)cc1` [Example 98, 4-[4-fluoro-2-(2,2,2-trifluoroethoxy)phenyl]-2-{4-[(oxan-4-yl)oxy]phenyl}-2,3-dihydro-1H-pyrrolo[3,4-c]pyridin-1-one]: the inhibition at 10 µM amounted to 100%. Consider `CC(C)(C#N)COc1ccc(N2Cc3c(cc(C(C)(C)O)nc3-c3ccccc3OCC(F)F)C2=O)cc1` [Example 362, 3-(4-{4-[2-(2,2-difluoroethoxy)phenyl]-6-(2-hydroxypropan-2-yl)-1-oxo-1,3-dihydro-2H-pyrrolo[3,4-c]pyridin-2-yl}phenoxy)-2,2-dimethylpropanenitrile], for which the inhibition at 10 µM came out at 100%. Same read-out and setting: then `CCS(=O)(=O)c1ccc(N2Cc3c(ccnc3-c3ccc(F)cc3OCC(F)(F)F)C2=O)cc1` [Example 110, 2-[4-(ethanesulfonyl)phenyl]-4-[4-fluoro-2-(2,2,2-trifluoroethoxy)phenyl]-2,3-dihydro-1H-pyrrolo[3,4-c]pyridin-1-one], with 97%; and `CS(=O)(=O)c1ccc(N2Cc3c(ccnc3-c3ccc(F)cc3OCC(F)(F)F)C2=O)nc1` [Example 108, 4-[4-fluoro-2-(2,2,2-trifluoroethoxy)phenyl]-2-[5-(methanesulfonyl)pyridin-2-yl]-2,3-dihydro-1H-pyrrolo[3,4-c]pyridin-1-one], with 64%. On the same count and under the same terms, under `CC(C)(O)COc1ccc(N2Cc3c(ccnc3-c3ccc(F)cc3OCC(F)(F)F)C2=O)cc1` [Example 254, 4-[4-fluoro-2-(2,2,2-trifluoroethoxy)phenyl]-2-[4-(2-hydroxy-2-methylpropoxy)phenyl]-2,3-dihydro-1H-pyrrolo[3,4-c]pyridin-1-one] stands 99%.

Consider `CC(C)(C#N)COc1cc(F)ccc1-c1nccc2c1CN(c1ccc(OC(F)F)nc1)C2=O` [Example 171, 3-(2-{2-[6-(difluoromethoxy)pyridin-3-yl]-1-oxo-2,3-dihydro-1H-pyrrolo[3,4-c]pyridin-4-yl}-5-fluorophenoxy)-2,2-dimethylpropanenitrile], for which the inhibition at 10 µM is 52%.

For the origin of these results see patent publication US12528802B2, “Heterocyclic compound” (Takeda Pharmaceutical Company Limited, priority 2019, dated 2026).
